Test results reported in PMC12901071 (Scientific Reports, 2026).

Biological target: T1, human membrane progestin receptor α (hmPRα) (Homo sapiens, UniProt Q86WK9)
T1 sequence (Q86WK9 1-346): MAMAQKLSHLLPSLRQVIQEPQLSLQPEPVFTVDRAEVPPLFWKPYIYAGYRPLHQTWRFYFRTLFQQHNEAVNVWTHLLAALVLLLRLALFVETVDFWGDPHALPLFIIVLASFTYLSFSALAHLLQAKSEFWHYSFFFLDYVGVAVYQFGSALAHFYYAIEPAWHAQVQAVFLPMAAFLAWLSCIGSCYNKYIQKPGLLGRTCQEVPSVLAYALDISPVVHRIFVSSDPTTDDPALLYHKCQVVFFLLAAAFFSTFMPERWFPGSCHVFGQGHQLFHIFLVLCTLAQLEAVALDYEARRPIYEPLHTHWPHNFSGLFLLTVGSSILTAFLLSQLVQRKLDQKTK
Experiment: GQD-hmPRα fluorescence competition with P4-BSA-FITC
Type: binding

| Structure (SMILES) | IC50 [nM] |
| --- | --- |
| CCCC(O)C(=O)OC(CCC)C(=O)O (centres unmarked) [1-CB 2-HPNA, 1-carboxybutyl 2-hydroxypentanoate] | 1260 |
| CC(=O)[C@H]1CC[C@H]2[C@@H]3CCC4=CC(=O)CC[C@]4(C)[C@H]3CC[C@]12C [progesterone] | 1900 |
